Measured values taken from BindingDB's records for doi:10.1124/mol.61.2.415 (University of Ferrara, 2002).
Values joined by “and” are separate entries in the source; they are usually repeats but may differ in a detail not shown here. Identical values can stand only once.

Target: T1, Adenosine receptor A3 (Homo sapiens, UniProt P0DMS8)
T1 sequence (P0DMS8 whole entry): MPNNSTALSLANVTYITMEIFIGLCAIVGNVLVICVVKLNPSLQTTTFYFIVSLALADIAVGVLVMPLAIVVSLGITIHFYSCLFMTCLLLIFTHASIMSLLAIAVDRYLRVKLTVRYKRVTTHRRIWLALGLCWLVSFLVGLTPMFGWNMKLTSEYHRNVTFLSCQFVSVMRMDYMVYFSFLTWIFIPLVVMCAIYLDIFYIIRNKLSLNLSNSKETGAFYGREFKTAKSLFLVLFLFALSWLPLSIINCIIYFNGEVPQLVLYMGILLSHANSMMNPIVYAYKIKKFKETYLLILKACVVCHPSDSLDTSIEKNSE

Molecule `Nc1nc2ccc(Cl)cc2c2nc(-c3ccco3)nn12` has a Ki of 122 nM.
For `Nc1nc2c(cnn2CCc2ccccc2)c2nc(-c3ccco3)nn12`, the Ki was greater than 10000 nM.
For `CCCCn1cc2c(nc(NC(=O)Nc3ccccc3)n3nc(-c4ccco4)nc23)n1`, the Ki was 1.4 nM and 0.93 nM.
`Cn1cc2c(nc(NC(=O)Nc3ccccc3)n3nc(-c4ccco4)nc23)n1` was tested, and the Ki was 1.7 nM and 1.5 nM.
`CCn1cc2c(nc(NC(=O)Nc3ccccc3)n3nc(-c4ccco4)nc23)n1` gave a Ki of 1.2 nM.
In the case of `CCCCC#Cc1nc(N)c2ncn([C@@H]3O[C@H](C(=O)NCC)[C@H](O)C3O)c2n1` (stereo partly drawn) [(2S,3R,5R)-5-[6-amino-2-(hex-1-yn-1-yl)-9H-purin-9-yl]-N-ethyl-3,4-dihydroxyoxolane-2-carboxamide], the Ki is reported as 750 nM and 740 nM.
In the case of `CCCn1cc2c(nc(NC(=O)Nc3ccccc3)n3nc(-c4ccco4)nc23)n1` [MRE 3055F20], the Ki is reported as 1 nM and 0.53 nM.
